Results on one compound are retold here after patent US20230134859A1, “METHOD FOR SCREENING FOR, METHOD FOR PRODUCING, AND METHOD FOR DESIGNING DRUG ACTIVE INGREDIENTS” (SKY PHARMA CO., LTD., priority 2020, published 2023).

Test [1] has as its system sox1α, sox2, sox3, and her6. Nature of the test: Test Example 1: quantitative PCR of neural stem cell markers in brains of treated zebrafish. It is filed as in vivo. To be noted: brain of treated zebrafish individuals; ΔΔCt; vs control. The procedure:
Moreover, the brains of the treated zebrafish individuals were dissected and washed with sterile distilled water, and then crushed by pipetting or 1 ml syringe suction discharge with 18 G to 24 G needles in 500 μl of Sepasol-RNA I Super G (Nacalai Tesque). A deproteinization operation was conducted once by equivalent phenol/chloroform treatment and once by chloroform treatment, and the supernatant was subjected to RNA purification using an RNA purification column (RNeasy Plus Mini Kit, Qiagen). The elute was reverse-transcribed using a mixed primer of random hexamer and oligo-dT (ReverTra Ace qPCR Kit, TOYOBO) at 37° C. for 15 minutes and 98° C. for 5 minutes, and quantitative PCR of expression levels of sox1α, sox2, sox3, and her6, which are markers of neural stem cells, was performed. Quantitative PCR was performed with SYBER Green Realtime PCR Master Mix (TOYOBO). For the PCR reaction, ABI PRISM 7700 or LightCycler from Roche Diagnostics K.K. was used. Quantification was performed in 3 wells per identical sample (n=3). The obtained data was comparatively quantified by a ΔΔCt method using a normalizer (β-actin, GAPDH, 18S, or the like). In order to confirm that the quantitative reaction was reliable, it was confirmed that the amplification product was in a band by agarose electrophoresis.

The test system of the next test is retinal ganglion cells. Nature of the test: Test Example 5: regeneration induction of mouse retinal neurons by eye drop in high intraocular pressure glaucoma model. Format: in vivo. To be noted: 100 μM eye drops to both eyes three times a day; 10 days to 1 month; vs control. The procedure: High intraocular glaucoma model mouse (transgenic lines specifically expressing green fluorescent protein (GFP) in retinal ganglion cells)
To an adult of a high intraocular pressure glaucoma model mouse, a solution prepared by dissolving 100 μM of the test compound in 1% methyl cellulose/physiological saline was administered by instillation to both eyes at […] per a time three times a day.
As a control experiment (control), an experiment of instilling 1% methyl cellulose/physiological saline containing no test compound was also performed.

Another test concerns pancreatic β cells. Nature of the test: Test Example 9: pancreatic β cells and insulin in transgenic zebrafish embryos. Format: in vivo. To be noted: vs control. On the procedure:
Transgenic zebrafish expressing pancreatic β-cell GFP
Transgenic zebrafish embryos expressing pancreatic β-cell GFP at 10 hours after fertilization were held with the dorsal side of the head up on a coffin, and a glass capillary was inserted from the dorsal side into a gap just below the midline neural tube at about 2 times the distance between the rostral end and the ear vesicles to the caudal side (pancreatic primordium). A nitrogen gas pressure (15 picosiemens) was applied for 15 to 45 milliseconds, and the test compound was injected. The concentration of the test compound was 100 nM/E3, and 0.025% (final concentration) phenol red was mixed as a tracer of the infusion solution. The injection was performed in pulses with a foot pedal and continued until phenol red was distributed in an elliptical shape with a major axis of 200 μm from the insertion point.
The test compound (100 nM) was injected on a coffin in transgenic zebrafish embryos expressing pancreatic β-cell GFP at 10 hours after fertilization. After injection, embryos were cultured in E3 at 28.5° C. for 14 hours. After chorions were removed with tweezers, the embryos were fixed with 4% paraformaldehyde/PBS at room temperature for 1 hour, and in situ hybridization was performed overnight at 65° C. in the presence of a DIG probe of insulin (ins) according to a conventional method. After washing, β cells were stained by an alkali phosphatase color reaction using an anti-DIG antibody. After staining, the embryos were washed with PBS, embedded in 75% glycerin/PBS and localized, and then microscopically photographed with incident light. The number of test individuals was unified with n=100 for each test compound (FIG. 23).
Transgenic zebrafish embryos expressing pancreatic β-cell GFP at 10 hours after fertilization were injected with the test compound (100 nM or 5 nM) on the coffin. After injection, embryos were cultured in E3 at 28.5° C. for 20 hours in the presence of 0.2 mM phenylthiourea (PTU). After chorions were removed with tweezers, the embryos were fixed with 4% paraformaldehyde/PBS at normal temperature for 1 hour, immunohistochemically reacted with an anti-insulin antibody according to a conventional method, and then reacted with an Alexa fluor 488 anti-mouse IgG secondary antibody. The reacted embryos were washed with PBS, embedded in 75% glycerin/PBS and localized, and then microscopically photographed with 488 nm excitation light (FIG. 24). The number of tested individuals was unified with n=10 for each compound. The insulin amount was quantified by measuring the average fluorescence intensity in a circle with a radius of 100 μm centered on the fluorescence point (FIG. 25).

Test [2] relates to T-cell type acute lymphocytic leukemia model. Briefly: Test Example 10: verification of anticancer effect in T-cell type acute lymphocytic leukemia model. It is filed as in vivo, zebrafish. On the procedure:
T-cell type acute lymphocytic leukemia model specifically expressing GFP in vascular endothelial cells
A liquid agent prepared by adding a compound to E3 Ringer to adjust to 100 μM was microscopically injected into the body ventral main vessel of an embryo of a T cell-type acute lymphatic leukemia model individual 24 hours after fertilization. E3 Ringer was similarly microscopically injected as a control. At the time of microinjection, embryos were held on the body side up in a 3% methylcellulose/E3 Ringer/0.02% tricaine solution on a glass slide, and then a glass capillary was inserted into an abdominal main vessel running in the head-to-tail direction at the boundary between the body wall and egg yolk. Then, a nitrogen gas pressure (15 picosiemens) was applied for 30 to 45 milliseconds, and the mixture was injected into the blood vessel. At this time, 0.025% (final concentration) phenol red was mixed as a tracer of the injection solution. The amount to be injected was adjusted by applying gas pressure in a pulsed manner until a large blood vessel of the whole body became uniform and thin red due to blood flow. […]
In addition, survival rates of drug-injected individuals and control individuals were counted. […]

Consider `CNS(=O)(=O)c1ccccc1Nc1nc(Nc2ccc(N3CCN(C)CC3)cc2OC)ncc1Cl` [Compound 7, 2-[[5-Chloro-2-[2-methoxy-4-(4-methylpiperazin-1-yl)anilino]pyrimidin-4-yl]amino]-N-methylbenzenesulfonamide], for which the “expression levels of sox1α, sox2, sox3, and her6 (quantitative PCR)” value in test [1] is listed as “significant increase in expression levels”. Further, in the test with retinal ganglion cells, the “amplification of retinal ganglion cells” value is “amplification of retinal ganglion cells was remarkably observed”. Further, the “number of β cells (pancreatic β-cell GFP fluorescence)” value with pancreatic β cells (100 nM injected at pancreatic primordium 10 h after fertilization, observed up to 48 h) is “increased as compared with the control individual”. In addition, the “production amount of insulin by β cells (in situ hybridization, ins probe)” value in the test on pancreatic β cells (100 nM, 14 h after injection, n=100) was “significantly increased as compared with the control individual”. The “thickening and tumorigenesis of vascular endothelium” value in test [2] (100 μM injected into ventral main vessel at 24, 36 and 48 h after fertilization, observed at 56 h, vs control) is “thickening and tumorigenesis of the endothelium were observed”. Besides, the “survival rate on Day 28” value in test [2] (leukemia model individuals injected with 100 μM, three tests, control 22.4%±4.56) was 55.9%±6.07.
